Tests used:
[1] = biological target: T1, Protein cereblon/Wee1-like protein kinase (Homo sapiens, UniProt P30291+Q96SW2); assay: PROTAC activity at CRBN/recombinant WEE1 (unknown origin) assessed as induction of WEE1 degradation by FRET based Lantha Screen assay; format: protein assay
[2] = biological target: T1, Protein cereblon/Wee1-like protein kinase; assay: PROTAC activity at CRBN/WEE1 in human […] assessed as induction of WEE1 degradation treated for 5 hrs by Western blot analysis; format: cell-based
[3] = biological target: T2, Wee1-like protein kinase (Homo sapiens, UniProt P30291); assay: Inhibition of WEE1 (unknown origin) using LSNLYHQGKFLQTFCGSPLYRRR polypeptide as substrate incubated for 40 mins in presence of [gamma-33P]-ATP by scintillation counting method
T2 sequence (P30291 whole entry): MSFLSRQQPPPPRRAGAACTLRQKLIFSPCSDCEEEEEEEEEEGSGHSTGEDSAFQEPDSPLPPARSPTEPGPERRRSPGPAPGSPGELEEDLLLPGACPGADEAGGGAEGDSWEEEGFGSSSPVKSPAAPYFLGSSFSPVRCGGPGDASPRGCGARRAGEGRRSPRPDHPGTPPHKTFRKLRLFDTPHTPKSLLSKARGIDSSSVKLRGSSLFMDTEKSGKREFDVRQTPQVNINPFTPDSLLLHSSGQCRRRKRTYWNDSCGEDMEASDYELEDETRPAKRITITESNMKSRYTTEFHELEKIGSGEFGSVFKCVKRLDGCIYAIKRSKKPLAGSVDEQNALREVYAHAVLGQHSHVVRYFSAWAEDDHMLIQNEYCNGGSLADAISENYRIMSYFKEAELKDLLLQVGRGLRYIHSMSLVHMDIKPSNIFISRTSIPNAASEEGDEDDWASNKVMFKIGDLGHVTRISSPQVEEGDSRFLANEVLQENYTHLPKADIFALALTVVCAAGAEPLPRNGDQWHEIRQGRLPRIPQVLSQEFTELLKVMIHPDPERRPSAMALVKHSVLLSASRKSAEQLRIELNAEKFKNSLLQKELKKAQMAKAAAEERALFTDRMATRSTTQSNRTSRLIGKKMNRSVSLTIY

[4] = Cmax in overnight fasted rat at 5 mg/kg, po via gavage measured for 0.25 to 24 hrs by LC/MS/MS analysis; format: ADME, organism-based; parameters: dose 5 mg/kg, time upper 24 hrs, time lower 0.25 hrs, route po; details: in vivo
[5] = AUC (0 to last) in overnight fasted rat at 5 mg/kg, po via gavage measured for 0.25 to 24 hrs by LC/MS/MS analysis; format: ADME, organism-based; parameters: time upper 24 hrs, dose 5 mg/kg, time lower 0.25 hrs, route po; details: in vivo
[6] = biological target: T2, Wee1-like protein kinase; assay: Displacement of tracer 178 from N-terminal GST-fused human WEE1 (215 to 646 residues) expressed in baculovirus expression system preincubated for 5 mins followed by tracer addition measured after 60 mins by Lantha Screen EU assay
[7] = biological target: T3, Serine/threonine-protein kinase ATR (Homo sapiens, UniProt Q13535); assay: Binding affinity to ATR (unknown origin) assessed as inhibition constant
T3 sequence (Q13535 whole entry): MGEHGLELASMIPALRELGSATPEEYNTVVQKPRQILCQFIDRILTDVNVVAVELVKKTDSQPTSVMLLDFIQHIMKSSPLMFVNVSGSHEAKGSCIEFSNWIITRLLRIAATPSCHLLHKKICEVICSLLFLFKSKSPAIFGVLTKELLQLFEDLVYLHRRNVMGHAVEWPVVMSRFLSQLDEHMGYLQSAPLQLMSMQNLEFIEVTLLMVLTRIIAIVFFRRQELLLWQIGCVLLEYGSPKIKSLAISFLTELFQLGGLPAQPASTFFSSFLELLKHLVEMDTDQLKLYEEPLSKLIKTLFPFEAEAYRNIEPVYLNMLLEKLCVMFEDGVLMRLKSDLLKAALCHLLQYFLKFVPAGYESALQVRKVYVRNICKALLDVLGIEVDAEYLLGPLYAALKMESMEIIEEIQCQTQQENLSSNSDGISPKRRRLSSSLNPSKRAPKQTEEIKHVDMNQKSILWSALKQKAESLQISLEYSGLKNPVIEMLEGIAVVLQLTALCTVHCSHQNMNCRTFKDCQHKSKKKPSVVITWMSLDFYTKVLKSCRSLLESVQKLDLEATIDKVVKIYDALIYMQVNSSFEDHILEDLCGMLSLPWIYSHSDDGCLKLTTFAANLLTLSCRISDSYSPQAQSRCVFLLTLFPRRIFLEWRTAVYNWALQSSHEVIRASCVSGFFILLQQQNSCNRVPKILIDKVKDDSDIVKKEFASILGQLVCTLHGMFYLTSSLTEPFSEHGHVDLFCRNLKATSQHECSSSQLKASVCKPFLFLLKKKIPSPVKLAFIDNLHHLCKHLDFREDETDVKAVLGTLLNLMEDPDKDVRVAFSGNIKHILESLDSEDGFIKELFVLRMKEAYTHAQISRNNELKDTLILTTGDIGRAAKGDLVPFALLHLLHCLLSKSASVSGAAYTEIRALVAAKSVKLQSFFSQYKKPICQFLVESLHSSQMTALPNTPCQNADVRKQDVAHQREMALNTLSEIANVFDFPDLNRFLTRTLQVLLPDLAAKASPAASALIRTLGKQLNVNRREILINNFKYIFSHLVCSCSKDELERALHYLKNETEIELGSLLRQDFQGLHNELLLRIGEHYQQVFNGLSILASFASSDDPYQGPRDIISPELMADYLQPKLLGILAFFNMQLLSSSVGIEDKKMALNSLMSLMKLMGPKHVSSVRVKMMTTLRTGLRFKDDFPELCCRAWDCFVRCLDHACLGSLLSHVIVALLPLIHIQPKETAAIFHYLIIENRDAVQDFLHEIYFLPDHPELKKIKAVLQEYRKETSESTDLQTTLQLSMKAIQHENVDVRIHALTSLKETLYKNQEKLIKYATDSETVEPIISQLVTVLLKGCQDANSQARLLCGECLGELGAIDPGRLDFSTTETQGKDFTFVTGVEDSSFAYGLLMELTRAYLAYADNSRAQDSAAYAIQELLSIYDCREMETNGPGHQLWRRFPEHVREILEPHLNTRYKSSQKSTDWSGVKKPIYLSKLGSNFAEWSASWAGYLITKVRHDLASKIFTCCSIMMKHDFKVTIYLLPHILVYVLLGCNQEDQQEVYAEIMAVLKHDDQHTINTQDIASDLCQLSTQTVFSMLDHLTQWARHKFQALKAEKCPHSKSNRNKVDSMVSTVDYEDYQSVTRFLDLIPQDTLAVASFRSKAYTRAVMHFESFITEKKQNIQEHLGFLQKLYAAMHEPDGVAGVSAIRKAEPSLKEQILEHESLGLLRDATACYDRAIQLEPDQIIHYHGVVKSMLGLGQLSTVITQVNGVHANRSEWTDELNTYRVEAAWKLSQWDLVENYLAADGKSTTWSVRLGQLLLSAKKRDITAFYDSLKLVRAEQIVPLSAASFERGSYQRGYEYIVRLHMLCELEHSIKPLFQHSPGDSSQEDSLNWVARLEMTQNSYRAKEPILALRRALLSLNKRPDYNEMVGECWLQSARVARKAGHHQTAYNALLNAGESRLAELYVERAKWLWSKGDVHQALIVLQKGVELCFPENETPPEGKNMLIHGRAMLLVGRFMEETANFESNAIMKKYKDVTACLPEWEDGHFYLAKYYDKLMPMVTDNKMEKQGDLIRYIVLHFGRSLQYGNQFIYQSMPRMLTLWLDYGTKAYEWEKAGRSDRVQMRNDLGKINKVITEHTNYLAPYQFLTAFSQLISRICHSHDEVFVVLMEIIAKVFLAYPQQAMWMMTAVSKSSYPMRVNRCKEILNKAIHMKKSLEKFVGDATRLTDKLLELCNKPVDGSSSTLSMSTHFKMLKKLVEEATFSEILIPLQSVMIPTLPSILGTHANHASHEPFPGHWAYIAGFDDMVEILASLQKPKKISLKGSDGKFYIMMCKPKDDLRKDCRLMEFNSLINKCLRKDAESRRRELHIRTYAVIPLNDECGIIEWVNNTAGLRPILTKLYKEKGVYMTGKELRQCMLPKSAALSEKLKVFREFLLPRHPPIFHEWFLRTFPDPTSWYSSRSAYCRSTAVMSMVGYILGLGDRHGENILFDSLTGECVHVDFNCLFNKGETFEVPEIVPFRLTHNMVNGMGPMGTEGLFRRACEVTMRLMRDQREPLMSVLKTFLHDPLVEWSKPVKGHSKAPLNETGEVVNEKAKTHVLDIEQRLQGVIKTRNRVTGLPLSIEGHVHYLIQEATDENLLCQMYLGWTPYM

[8] = biological target: T3, Serine/threonine-protein kinase ATR; assay: Inhibition of ATR (unknown origin)-driven CHK1 phosphorylation
[9] = system: NCI-H1703; assay: Antitumor activity against human NCI-H1703 cells xenografted in BALB/c mouse assessed as tumor growth inhibition at 90 mg/kg, bid measured on day 21 by vernier caliper method relative to control; format: functional; details: NCI-H1703, 504 h, read-out: TGI
[10] = Oral bioavailability in BALB/c mouse at 2 mg/kg by LC-MS/MS analysis; format: ADME, organism-based; details: in vivo
[11] = AUC (0 to last) in BALB/c mouse at 0.4 mg/kg, iv by LC-MS/MS analysis; format: ADME, organism-based; parameters: time 0 - last, dose 0.4 mg/kg, route iv; details: in vivo
[12] = Half life in BALB/c mouse at 2 mg/kg, po by LC-MS/MS analysis; format: ADME, organism-based; details: in vivo
[13] = Tmax in BALB/c mouse at 2 mg/kg, po by LC-MS/MS analysis; format: ADME, organism-based; details: in vivo
[14] = AUC (0 to last) in BALB/c mouse at 2 mg/kg, po by LC-MS/MS analysis; format: ADME, organism-based; parameters: time 0 - last, dose 2 mg/kg, route po; details: in vivo
[15] = Half life in BALB/c mouse at 0.4 mg/kg, iv by LC-MS/MS analysis; format: ADME, organism-based; details: in vivo
[16] = Cmax in BALB/c mouse at 2 mg/kg, po by LC-MS/MS analysis; format: ADME, organism-based; parameters: dose 2 mg/kg, route po; details: in vivo
[17] = biological target: DNA-dependent protein kinase catalytic subunit (Homo sapiens, UniProt P78527); assay: Inhibition of DNA-PK (unknown origin)
[18] = Half life in mouse at 0.4 mg/kg, iv; format: ADME, organism-based; details: in vivo
[19] = AUC (0 to last) in mouse at 0.4 mg/kg, iv; format: ADME, organism-based; parameters: time 0 - last, dose 0.4 mg/kg, route iv; details: in vivo
[20] = system: LoVo; assay: Antitumor activity against human LoVo cells xenografted in BALB/c nude mouse assessed as tumor growth inhibition at 40 mg/kg,iv bid by vernier caliper method relative to control; format: functional; details: read-out: TGI
[21] = Half life in BALB/c nude mouse at 1 mg/kg, iv measured for 0.08 to 24 hrs by LC-MS/MS analysis; format: ADME, organism-based; details: in vivo, time 0.08-24 hrs
[22] = Oral bioavailability in BALB/c nude mouse at 1 mg/kg, iv measured for 0.08 to 24 hrs by LC-MS/MS analysis; format: ADME, organism-based; details: in vivo, time 0.08-24 hrs
[23] = AUC (0 to last) in BALB/c nude mouse at 1 mg/kg, iv measured for 0.08 to 24 hrs by LC-MS/MS analysis; format: ADME, organism-based; parameters: time 0.08-24 hrs, dose 1 mg/kg, route iv; details: in vivo
[24] = biological target: Serine/threonine-protein kinase Chk1 (Homo sapiens, UniProt O14757); assay: Inhibition of N-terminal GST-tagged full-length recombinant human CHK1 expressed in baculovirus infected Sf9 insect cells using FAM-P10 peptide as substrate preincubated for 10 mins followed by substrate addition measured after 60 mins by ADP-Glo assay
Sequence of Serine/threonine-protein kinase Chk1 (O14757 whole entry): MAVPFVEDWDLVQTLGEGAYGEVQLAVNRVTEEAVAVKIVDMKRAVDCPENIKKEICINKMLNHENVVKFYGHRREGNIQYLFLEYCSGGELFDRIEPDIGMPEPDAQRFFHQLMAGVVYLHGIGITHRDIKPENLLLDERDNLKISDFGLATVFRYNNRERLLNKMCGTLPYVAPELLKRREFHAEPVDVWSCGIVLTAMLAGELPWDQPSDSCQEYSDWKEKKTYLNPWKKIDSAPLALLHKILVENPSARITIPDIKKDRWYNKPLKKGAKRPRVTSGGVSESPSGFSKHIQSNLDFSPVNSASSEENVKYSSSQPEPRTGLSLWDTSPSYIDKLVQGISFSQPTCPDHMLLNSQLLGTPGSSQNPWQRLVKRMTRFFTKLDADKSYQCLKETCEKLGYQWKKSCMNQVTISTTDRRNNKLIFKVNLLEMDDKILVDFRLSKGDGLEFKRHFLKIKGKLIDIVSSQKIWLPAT

[25] = Half life in Sprague-Dawley rat at 10 mg/kg, iv by LC-MS/MS analysis; format: ADME, organism-based; details: in vivo
[26] = AUC (0 to last) in Sprague-Dawley rat at 10 mg/kg, iv by LC-MS/MS analysis; format: ADME, organism-based; parameters: time 0 - last, dose 10 mg/kg, route iv; details: in vivo
[27] = Cmax in ICR mouse at 10 mg/kg, po measured for 5 to 1440 mins; format: ADME, organism-based; parameters: time upper 1440 min, dose 10 mg/kg, time lower 5 min, route po; details: in vivo
[28] = AUC (0 to last) in ICR mouse at 10 mg/kg, po measured for 5 to 1440 mins; format: ADME, organism-based; parameters: time 5-1440 min, dose 10 mg/kg, route po; details: in vivo
[29] = Oral bioavailability in ICR mouse at 10 mg/kg measured for 5 to 1440 mins; format: ADME, organism-based; details: in vivo, time 5-1440 min
[30] = Tmax in ICR mouse at 10 mg/kg, po measured for 5 to 1440 mins; format: ADME, organism-based; details: in vivo, time 5-1440 min
[31] = Tmax in ICR mouse at 3 mg/kg, iv measured for 2 to 1440 mins; format: ADME, organism-based; details: in vivo, time 2-1440 min
[32] = biological target: T2, Wee1-like protein kinase; assay: Inhibition of N-terminal GST-tagged wild-type WEE1 (215 to 646 residues) (unknown origin) expressed in Sf21 insect cells incubated for 60 mins in presence of ATP by ELISA
[33] = Cmax in ICR mouse at 3 mg/kg, iv measured for 2 to 1440 mins; format: ADME, organism-based; parameters: time upper 1440 min, dose 3 mg/kg, time lower 2 min, route iv; details: in vivo
[34] = AUC (0 to last) in ICR mouse at 3 mg/kg, iv measured for 2 to 1440 mins; format: ADME, organism-based; parameters: time 2-1440 min, dose 3 mg/kg, route iv; details: in vivo
[35] = Half life in ICR mouse at 10 mg/kg, po measured for 5 to 1440 mins; format: ADME, organism-based; details: in vivo, time 5-1440 min
[36] = Half life in ICR mouse at 3 mg/kg, iv measured for 2 to 1440 mins; format: ADME, organism-based; details: in vivo, time 2-1440 min
[37] = biological target: ATR/ATRIP (Homo sapiens, UniProt Q13535); assay: Inhibition of human FLAG-tagged ATR/c-Myc-tagged ATRIP expressed in mammalian expression system using p53 as substrate incubated for 2 hrs by fluorescence based assay
Sequence of ATR/ATRIP (Q13535 whole entry): as the sequence (Q13535 whole entry) above
Sequence of ATR/ATRIP (Q8WXE1 whole entry, further chain): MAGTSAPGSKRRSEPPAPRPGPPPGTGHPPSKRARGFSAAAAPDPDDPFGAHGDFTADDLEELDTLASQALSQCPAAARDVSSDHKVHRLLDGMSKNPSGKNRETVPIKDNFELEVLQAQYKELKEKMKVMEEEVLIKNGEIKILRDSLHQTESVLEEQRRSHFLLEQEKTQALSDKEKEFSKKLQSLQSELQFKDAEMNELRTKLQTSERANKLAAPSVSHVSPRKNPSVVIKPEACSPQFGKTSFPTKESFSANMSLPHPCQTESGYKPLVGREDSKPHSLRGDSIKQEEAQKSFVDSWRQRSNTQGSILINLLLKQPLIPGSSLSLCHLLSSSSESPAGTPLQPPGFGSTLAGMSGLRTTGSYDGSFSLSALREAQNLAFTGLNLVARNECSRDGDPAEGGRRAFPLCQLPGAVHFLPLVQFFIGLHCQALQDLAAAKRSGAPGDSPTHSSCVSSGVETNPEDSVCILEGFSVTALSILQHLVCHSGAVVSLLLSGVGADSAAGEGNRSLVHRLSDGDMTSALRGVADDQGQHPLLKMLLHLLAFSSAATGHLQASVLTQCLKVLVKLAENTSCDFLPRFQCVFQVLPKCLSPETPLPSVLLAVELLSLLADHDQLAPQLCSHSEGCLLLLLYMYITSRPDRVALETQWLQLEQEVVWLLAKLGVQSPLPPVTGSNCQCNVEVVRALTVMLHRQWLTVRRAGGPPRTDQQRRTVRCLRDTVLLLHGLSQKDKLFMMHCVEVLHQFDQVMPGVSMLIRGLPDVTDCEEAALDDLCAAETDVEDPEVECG

[38] = AUC in overnight fasted Sprague-Dawley rat at 2 mg/kg, po via gavage measured for 0.25 to 24 hrs by LC/MS/MS analysis; format: ADME, organism-based; parameters: time 0.25-24 hrs, dose 2 mg/kg, route po; details: in vivo
[39] = Half life in overnight fasted Sprague-Dawley rat at 2 mg/kg, po via gavage measured for 0.25 to 24 hrs by LC/MS/MS analysis; format: ADME, organism-based; details: in vivo, time 0.25-24 hrs
[40] = Cmax in overnight fasted Sprague-Dawley rat at 2 mg/kg, po via gavage measured for 0.25 to 24 hrs by LC/MS/MS analysis; format: ADME, organism-based; parameters: dose 2 mg/kg, time upper 24 hrs, time lower 0.25 hrs, route po; details: in vivo
[41] = system: LoVo; assay: Inhibition of cell growth in human LoVo cells assessed as measuring ATP content incubated for 3 days by Cell Titer Glo assay; format: functional, cell-based; details: 72 h
[42] = system: HT-29; assay: Antitumor activity against human HT-29 cells xenografted in BALB/c mouse assessed as tumor growth inhibition relative to control; format: functional

T1 sequence (P30291 whole entry): as the sequence (P30291 whole entry) above
T1 sequence (Q96SW2 whole entry): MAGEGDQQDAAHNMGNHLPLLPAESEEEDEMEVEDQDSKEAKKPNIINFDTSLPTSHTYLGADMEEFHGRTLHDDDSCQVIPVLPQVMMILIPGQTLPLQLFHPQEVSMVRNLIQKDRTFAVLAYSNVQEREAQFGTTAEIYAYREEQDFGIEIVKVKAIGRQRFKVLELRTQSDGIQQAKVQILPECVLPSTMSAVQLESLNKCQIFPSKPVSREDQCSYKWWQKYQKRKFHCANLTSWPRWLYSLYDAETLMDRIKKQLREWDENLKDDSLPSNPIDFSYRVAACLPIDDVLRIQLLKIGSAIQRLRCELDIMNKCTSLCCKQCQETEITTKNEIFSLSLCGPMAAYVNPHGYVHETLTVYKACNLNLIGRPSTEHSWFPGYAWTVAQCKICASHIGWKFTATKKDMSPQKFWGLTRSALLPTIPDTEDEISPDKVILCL

C=CCn1c(=O)c2cnc(Nc3ccc(N4CCN(CCCNc5cccc6c5C(=O)N(C5CCC(=O)NC5=O)C6=O)CC4)cc3)nc2n1-c1cccc(C(C)(C)O)n1 (configuration not stated)
IC50 [1]: 3.58 nM | EC50 [2]: 100 nM

CN1CC2CN(c3ccc(Nc4ncc5c(=O)n6n(c5n4)-c4cccc(n4)C(C)(O)CCC/C=C\C6)cc3)CC2C1 (configuration not stated)
IC50 [3]: 57 nM

CN1CCC2(CC1)CCN(c1ccc(Nc3ncc4cc(C5CC5)n(-c5cccc(C(C)(C)O)n5)c4n3)cc1)CC2
Cmax [4]: 163 nM | AUC(0-t) [5]: 4070 ng·h/mL | IC50 [6]: 1.03 nM

Nc1nn2cc(F)cnc2c1C(=O)Nc1cncc(F)c1N1CCC(C(=O)N2CCN(C3COC3)CC2)CC1 [M4344]
Ki [7]: < 0.15 nM | IC50 [8]: 8 nM

Cc1cc2ncnn2cc1Nc1ncc2c(n1)n(N1CC3CCC(C1)O3)c(=O)n2C
inhibition in vivo at 90 mg/kg [9]: 79.4% | bioavailability [10]: 44.5% | AUC(0-t) [11]: 1.66 µM·h | half-life [12]: 3.85 h | Tmax [13]: 0.25 h | AUC(0-t) [14]: 3.49 µM·h | half-life [15]: 1.28 h | Cmax [16]: 2170 nM

CN1CCN(C2CCN(c3ccc(Nc4ncc5c(F)c(C6CC6)n(-c6cccc(C(C)(C)O)n6)c5n4)cc3F)CC2)CC1
Cmax [4]: 117 nM | AUC(0-t) [5]: 4580 ng·h/mL

COc1ccc(C2(c3cc(-c4ncnc5cc(N6CCOCC6)ccc45)c(F)cc3Cl)CC2)nn1
IC50 [17]: 29 nM | half-life [18]: 0.59 h | AUC(0-t) [19]: 2260 ng·h/mL

CN1CCN(c2ccc(Nc3ncc4c(=O)n5n(c4n3)-c3cccc(n3)[C@@](C)(O)CCC/C=C\C5)cc2)CC1
IC50 [3]: 29 nM | inhibition in vivo at 40 mg/kg [20]: 84.7% | half-life [21]: 1.69 h | bioavailability [22]: 62.4% | AUC(0-t) [23]: 6.04 µM·h

CCOC(=O)NCCCOc1cc(F)cc(OC)c1-c1cc(Nc2cnc(C#N)cn2)n[nH]1
IC50 [24]: < 50 nM | half-life [25]: 5.3 h | AUC(0-t) [26]: 2990 ng·h/mL

C=CCn1c(=O)c2cnc(Nc3ccc(N4C[C@H]5CN(C)C[C@H]5C4)cc3)nc2n1-c1ccc(C(C)(C)O)cn1
Cmax [27]: 121 nM | AUC(0-t) [28]: 409 ng·h/mL | bioavailability [29]: 64.3% | Tmax [30]: 1.33 h | Tmax [31]: 1.8 min | IC50 [32]: 1.83 nM | Cmax [33]: 241 nM | AUC(0-t) [34]: 191 ng·h/mL | half-life [35]: 1.32 h | half-life [36]: 0.92 h

C[C@@H]1COCCN1c1nc(-c2ccnn2C)c2c(n1)c(-c1ccn[nH]1)nn2C
IC50 [37]: 15 nM | AUC [38]: 2710 ng·h/mL | half-life [39]: 2.23 h | Cmax [40]: 674 ng/mL | IC50 [41]: 124 nM

COc1cc(F)cc(OCCCN)c1-c1cc(Nc2cnc(C#N)cn2)n[nH]1
IC50 [24]: < 1 nM | AUC(0-t) [26]: 4640 ng·h/mL | TGI [42]: 51%

Source: ChEMBL document CHEMBL5126523, “Recent advances in DDR (DNA damage response) inhibitors for cancer therapy” (Eur J Med Chem, 2022)
